In patent US5667825A (Kellogg Company, priority 1996, dated 1997):
Entries after “also recorded” stand apart in the source; their conditions may differ.

Assays:
[1] = Oxidative stability of iron fortified cereals in hot room (hexanal, rancid odor, off odor); type: physicochemical; conditions: for Off Odor Value / Rancid Odor Value / Hexanal Value: measured at two and four weeks (interval of value not stated); for Hexanal Value: ± 95% confidence interval
Procedure: The feasibility of using other iron sources was also tested. […] The individual tests are discussed in further detail below.
These samples were used for comparative stability and sensory analysis.
In order to test the stability of the iron fortified cereals, the R-T-E cereal samples prepared using four different sources of iron were placed in a hot room and exposed to a temperature of 100° F. over a four week period. Measurements were taken at two and four week intervals.

Sprague Dawley rats = assay: Rat hemoglobin regeneration method, relative iron bioavailability (modified AOAC); type: in vivo
Procedure: The relative iron availability of various iron compounds in a ready-to-eat breakfast cereal was tested using a widely accepted method, commonly referred to as the rat hemoglobin regeneration method, (modified AOAC method for assessment of relative iron bioavailability), see Williams, S. ed. Official methods of analysis of the Association of Official Analytical Chemists, 14th ed. Arlington, Va. AOAC, 1984; Fritz, J. C. et al., Collaborative Study of rat hemoglobin repletion test for bioavailability of iron, AOAC 1974, 57: 513-517. The testing for relative bioavailability of the various iron compounds was carried out in a series of separate experiments. In each of these experiments, ferrous sulfate was used as the standard or control compound.
Sprague Dawley rats, individually housed in temperature and light controlled units, were fed an iron deficient diet obtained from Harland Tekland Laboratories for 24 days. After this iron depletion phase, the rats were weighed and blood was drawn to test for baseline hemoglobin concentrations. These anemic animals, with hemoglobin levels between […], were then randomly assigned to the control and test groups. Ferrous sulfate and the iron compounds in the cereal were added at concentrations of 6 and 18 and 24 mg iron/kg to the control and test diets. These diets were then fed to groups of ten animals, ad libitum, for 14 days. Iron levels in the diets, were verified by atomic absorption spectrometry (Bolin et al., J. Assoc. Off. Anal. Chem. 1977, 60: 1170-1174). After the 14 day test period, hemoglobin concentrations were determined for all animals.
The bioavailability of each iron source tested relative to ferrous sulfate, was calculated by comparing gain in hemoglobin with the iron concentration in the diet by the slope ratio procedure (Finney, D. J., Statistical methods in biological assay. 2nd ed. 1964; Amine et L., Biological assessment of available iron in food products, J. Agric. Food Chem. 1974, 22: 470-476.). […]

[2] = in some diets; cited from earlier work

Compound | Stability in continuing stability tests ([1]; expected in continuing tests) | Oxidative stability (rancid odor, off odor, hexanal), result in words ([1]; hot room 100° F., four weeks) | Off Odor Value ([1]; hot room 100° F.) | Rancid Odor Value ([1]; hot room 100° F.) | Hexanal Value ([1]; hot room 100° F.) | Slope Value (gain in hemoglobin vs iron concentration in the diet) (Sprague Dawley rats; 6, 18 and 24 mg iron/kg diet, 14 days, ± 95% confidence interval) | Iron bioavailability / absorption, result in words (Sprague Dawley rats; anemic rats, versus ferrous sulfate and reduced iron) | Bioavailability versus FeSO4 complex [2] | Slope Ratio (bioavailability relative to ferrous sulfate) (Sprague Dawley rats; rat, in vivo, 20160 min)
O=C([O-])CN(CCN(CC(=O)[O-])CC(=O)[O-])CC(=O)[O-].[Fe+3].[Na+] [Ferric EDTA, sodium ferric ethylenediaminetetraacetic acid complex] | expected to improve in stability in comparison to the other ferric samples tested | statistically significant lower level of rancid odor, off odor and hexanal value; also recorded: most stable of the products tested with the lowest hexanal, rancid odor and off odor values | 0.78 ± 0.44 | 0.56 ± 0.43 | 0.40 ± 0.22 | 0.31 ± 0.03 | absorbed at a rate not significantly different from ferrous sulphate and significantly better than reduced iron; also recorded: superior in bioavailability to reduced iron | two to three times more bioavailable | –
O=C([O-])/C=C/C(=O)[O-].[Fe+2] [Ferrous Fumarate, ferrous fumarate, reference compound] | – | – | 2.67 ± 0.41 | 2.89 ± 0.62 | 2.37 ± 1.00 | – | – | – | –
ferrous sulfate [reference compound] | – | – | 2.33 ± 0.48 | 1.22 ± 0.57 | 2.13 ± 2.02 | – | – | – | 1.00
